Reference: ChEMBL document CHEMBL1150414, “Synthesis, nano-scale assembly, and in vivo anti-thrombotic activity of novel short peptides containing L-Arg and L-Asp or L-Glu” (2008)
Where “and” joins values, the source holds several entries; their conditions need not be identical. Equal values may be shown once. Starred links: 1 amine or outer side, 2 acyl side, 3 side chain; linkers in the order of their positions; H or OH if unused. Non-standard residues stand in square brackets, D forms with d. Residues, ends and D or L forms follow the SMILES beside them. Groups on a side chain read outwards from the residue. βAsp = O=C(O)[C@H](CC(=O)[*:2])N[*:1]

Key:
Rattus norvegicus [1] = experiment: Antithrombotic activity in Wistar rat assessed as reduction of thrombus weight at 5 umol/kg, iv; assay type: functional
Rattus norvegicus [2] = experiment: Antithrombotic activity in Wistar rat assessed as thrombus weight at 5 umol/kg, po; assay type: functional
Rattus norvegicus [3] = experiment: Antithrombotic activity in iv dosed Wistar rat assessed as reduction of thrombus weight; assay type: functional, organism-based
Rattus norvegicus [4] = experiment: Antithrombotic activity in Wistar rat assessed as thrombus weight at 20 mg/kg, po; assay type: functional

Compound: N=C(N)NCCC[C@H](NC(=O)C[C@H](N)C(=O)N[C@@H](CCCNC(=N)N)C(=O)N[C@@H](CC(=O)O)C(=O)O)C(=O)N[C@@H](CC(=O)O)C(=O)O (H-Asp([Arg-Asp])-Arg-Asp-OH)
- Activity (Rattus norvegicus [1]): 25.12 mg and 15%

Compound: N=C(N)NCCC[C@H](NC(=O)C[C@H](NC(=O)C[C@H](N)C(=O)N[C@@H](CC(=O)N[C@@H](CCCNC(=N)N)C(=O)O)C(=O)O)C(=O)O)C(=O)O (H-Asp([βAsp-Arg])-[βAsp]-Arg-OH)
- Activity (Rattus norvegicus [2]): 23.2 mg
- Activity (Rattus norvegicus [3]): Dose-dependent effect

Compound: N=C(N)NCCC[C@H](NC(=O)CC[C@H](N)C(=O)N[C@@H](CCCNC(=N)N)C(=O)N[C@@H](CC(=O)O)C(=O)O)C(=O)N[C@@H](CC(=O)O)C(=O)O (H-Glu([Arg-Asp])-Arg-Asp-OH)
- Activity (Rattus norvegicus [3]): Dose-dependent effect

Compound: N=C(N)NCCC[C@H](NC(=O)C[C@H](NC(=O)CC[C@H](N)C(=O)N[C@@H](CC(=O)O)C(=O)N[C@@H](CCCNC(=N)N)C(=O)O)C(=O)O)C(=O)O (H-Glu([βAsp-Arg])-Asp-Arg-OH)
- Activity (Rattus norvegicus [3]): Dose-dependent effect

Compound: CC(=O)Oc1ccccc1C(=O)O [ASPIRIN]
- Activity (Rattus norvegicus [4]): 8.5 mg
